Source: ChEMBL document CHEMBL4616710, “Discovery of a Potent Anticancer Agent PVHD303 with in Vivo Activity” (ACS Med Chem Lett, 2020)
Each block holds one compound with its values, some of them ahead of it.

Columns and labels:
A549 [1] = assay: Antiproliferative activity against human A549 cells assessed as cell growth inhibition incubated for 72 hrs by CellTiter96 Aqueous one solution cell proliferation assay; type: functional, cell-based; details: A549, 72 h
A549 [2] = assay: Antiproliferative activity against human A549 cells assessed as cell growth inhibition; type: functional, cell-based
HeLa [3] = assay: (§1) Antimitotic activity against human HeLa cells assessed as proportion of cells with microtubule disruption around the condensed chromosomes and unseparated centrosome at 16 nM measured after 16 to 18 hrs by anti-alpha-tubulin/anti-gamma-tubulin antibodies based immunostaining/DAPI-staining based fluorescence microscopy analysis relative to control; type: functional
HeLa [4] = assay: Antimitotic activity against human HeLa cells assessed as proportion of cells with irregular spindles at 4 nM measured after 16 to 18 hrs by DAPI-staining based fluorescence microscopy analysis relative to control; type: functional
HeLa [5] = assay: Antimitotic activity against human HeLa cells assessed as proportion of cells with bipolar spindles at 12 nM measured after 16 to 18 hrs by DAPI-staining based fluorescence microscopy analysis relative to control; type: functional
HCT-116 [6] = assay: Antitumor activity against human HCT116 cells xenografted in BALB/c nude mouse assessed as tumor growth inhibition at 20 mg/kg, iv qd administered on day 1,3,5,8,10,12,15,17,19 and measured on day 22 by caliper method relative to control; type: functional; details: HCT-116, iv, read-out: TGI
HeLa [7] = assay: Antimitotic activity against human HeLa cells assessed as proportion of cells with bipolar spindles at 8 nM measured after 16 to 18 hrs by DAPI-staining based fluorescence microscopy analysis relative to control; type: functional
HeLa [8] = assay: Antimitotic activity against human HeLa cells assessed as proportion of cells with diffuse alpha-tubulin at 12 nM measured after 16 to 18 hrs by DAPI-staining based fluorescence microscopy analysis relative to control; type: functional
HCT-116 [9] = assay: Antitumor activity against human HCT116 cells xenografted in BALB/c nude mouse assessed as tumor growth inhibition at 10 mg/kg, iv qd administered on day 1,3,5,8,10,12,15,17,19 and measured on day 22 by caliper method relative to control; type: functional; details: HCT-116, iv, read-out: TGI
HeLa [10] = assay: Antimitotic activity against human HeLa cells assessed as proportion of cells with bipolar spindles at 4 nM measured after 16 to 18 hrs by DAPI-staining based fluorescence microscopy analysis relative to control; type: functional
HeLa [11] = assay: as §1, with “at 12” for “at 16”; type: functional
HeLa [12] = assay: Antimitotic activity against human HeLa cells assessed as proportion of mitotic cells at 16 nM measured after 16 to 18 hrs by DAPI-staining based fluorescence microscopy analysis relative to control; type: functional
HCT-116 [13] = assay: Antiproliferative activity against human HCT116 cells assessed as cell growth inhibition incubated for 72 hrs by CellTiter96 Aqueous one solution cell proliferation assay; type: functional, cell-based; details: HCT-116, 72 h
HeLa [14] = assay: Antimitotic activity against human HeLa cells assessed as proportion of cells with diffuse alpha-tubulin at 4 nM measured after 16 to 18 hrs by DAPI-staining based fluorescence microscopy analysis relative to control; type: functional
HeLa [15] = assay: Antimitotic activity against human HeLa cells assessed as proportion of mitotic cells at 8 nM measured after 16 to 18 hrs by DAPI-staining based fluorescence microscopy analysis relative to control; type: functional
HeLa [16] = assay: Antimitotic activity against human HeLa cells assessed as proportion of cells with bipolar spindles at 16 nM measured after 16 to 18 hrs by DAPI-staining based fluorescence microscopy analysis relative to control; type: functional
HeLa [17] = assay: as §1, with “at 4” for “at 16”; type: functional
HeLa [18] = assay: Antimitotic activity against human HeLa cells assessed as proportion of cells with diffuse alpha-tubulin at 16 nM measured after 16 to 18 hrs by DAPI-staining based fluorescence microscopy analysis relative to control; type: functional
HCT-116 [19] = assay: Antitumor activity against human HCT116 cells xenografted in iv dosed BALB/c nude mouse assessed as tumor growth inhibition administered once daily on day 1,3,5,8,10,12,15,17,19 and measured on day 22 by caliper method; type: functional, organism-based
HeLa [20] = assay: Antimitotic activity against human HeLa cells assessed as proportion of cells with diffuse alpha-tubulin at 8 nM measured after 16 to 18 hrs by DAPI-staining based fluorescence microscopy analysis relative to control; type: functional
HeLa [21] = assay: Antimitotic activity against human HeLa cells assessed as proportion of cells with irregular spindles at 8 nM measured after 16 to 18 hrs by DAPI-staining based fluorescence microscopy analysis relative to control; type: functional
HeLa [22] = assay: Antimitotic activity against human HeLa cells assessed as proportion of mitotic cells at 12 nM measured after 16 to 18 hrs by DAPI-staining based fluorescence microscopy analysis relative to control; type: functional
HeLa [23] = assay: Antimitotic activity against human HeLa cells assessed as proportion of mitotic cells at 4 nM measured after 16 to 18 hrs by DAPI-staining based fluorescence microscopy analysis relative to control; type: functional
HeLa [24] = assay: Antimitotic activity against human HeLa cells assessed as proportion of cells with irregular spindles at 16 nM measured after 16 to 18 hrs by DAPI-staining based fluorescence microscopy analysis relative to control; type: functional
HeLa [25] = assay: Antimitotic activity against human HeLa cells assessed as proportion of cells with irregular spindles at 12 nM measured after 16 to 18 hrs by DAPI-staining based fluorescence microscopy analysis relative to control; type: functional
HeLa [26] = assay: as §1, with “at 8” for “at 16”; type: functional

SMILES: COc1ccc(C(C)(O)c2ncnc3cc(OC)ccc23)cc1 (centres undefined)
- IC50 (A549 [1]): > 25000 nM

SMILES: COc1ccc(C(C)(O)c2nc(-c3ccccc3O)nc3ccccc23)cc1 (centres undefined)
- IC50 (A549 [1]): 223 nM

SMILES: COc1ccc(C(C)(O)c2nc(N)nc3ccccc23)cc1 (centres undefined)
- IC50 (A549 [1]): 50 nM

SMILES: CC[C@]1(O)C[C@@H]2CN(CCc3c([nH]c4ccccc34)[C@@](C(=O)OC)(c3cc4c(cc3OC)N(C)[C@H]3[C@@](O)(C(=O)OC)[C@H](OC(C)=O)[C@]5(CC)C=CCN6CC[C@]43[C@@H]65)C2)C1 [VINBLASTINE]
- IC50 (A549 [1]): 21 nM

SMILES: COc1ccc(C(C)(O)c2nc(N3CCC(O)CC3)nc3ccccc23)cc1 (centres undefined)
- IC50 (A549 [1]): 9320 nM

SMILES: COc1ccc(C(C)(O)c2nc(C3CC3)nc3ccccc23)cc1 (centres undefined)
- IC50 (A549 [1]): 637 nM

SMILES: COC(=O)Nc1nc2cc(C(=O)c3cccs3)ccc2[nH]1 [NOCODAZOLE]
- IC50 (A549 [1]): 272 nM

SMILES: COc1ccc(C(C)(O)c2nc(-c3ccco3)nc3ccccc23)cc1 (centres undefined)
- IC50 (A549 [1]): 36 nM

SMILES: COc1ccc(C(C)(O)c2nc(N3CC3)nc3ccccc23)cc1 (centres undefined)
- IC50 (A549 [1]): 220 nM

SMILES: COc1ccc(C(C)(O)c2ncnc3cc(F)ccc23)cc1 (centres undefined)
- IC50 (A549 [1]): 4670 nM

SMILES: COc1ccc(C(C)(O)c2ncnc3c(OC)cccc23)cc1 (centres undefined)
- IC50 (A549 [1]): 2100 nM

SMILES: COc1ccc(C(C)(O)c2ncnc3c(F)cccc23)cc1 (centres undefined)
- IC50 (A549 [1]): 430 nM

Now from value to compound, other results behind:

- IC50 (A549 [1]): 710 nM
SMILES: COc1ccc(C(C)(O)c2nc(N3CC=CCC3)nc3ccccc23)cc1 (centres undefined)

- IC50 (A549 [1]): 350 nM
SMILES: COc1ccc(C(C)(O)c2ncnc3ccc(F)cc23)cc1 (centres undefined)

- IC50 (A549 [1]): 50 nM
SMILES: COc1ccc(C(C)(O)c2nc(Br)nc3ccccc23)cc1 (centres undefined)

- IC50 (A549 [2]): 140 nM
SMILES: COc1ccc(C(C)(O)c2nc(N3CCOCC3)nc3ccccc23)cc1 (centres undefined)

- IC50 (A549 [1]): 13 nM
- IC50 (HCT-116 [13]): 13 nM
SMILES: COc1ccc(C(C)(O)c2nc(-c3ccoc3)nc3ccccc23)cc1 (centres undefined)
- Activity (HeLa [3]): 57%
- Activity (HeLa [4]): 0%
- Activity (HeLa [5]): 0%
- inhibition in vivo at 20 mg/kg (HCT-116 [6]): 62.9%
- Activity (HeLa [7]): 50%
- Activity (HeLa [8]): 33%
- inhibition in vivo at 10 mg/kg (HCT-116 [9]): 24.6%
- Activity (HeLa [10]): 100%
- Activity (HeLa [11]): 67%
- Activity (HeLa [12]): 60%
- Activity (HeLa [14]): 0%
- Activity (HeLa [15]): 52%
- Activity (HeLa [16]): 0%
- Activity (HeLa [17]): 0%
- Activity (HeLa [18]): 43%
- TGI (HCT-116 [19]): Dose-dependent effect
- Activity (HeLa [20]): 0%
- Activity (HeLa [21]): 44.2%
- Activity (HeLa [22]): 52%
- Activity (HeLa [23]): 50%
- Activity (HeLa [24]): 0%
- Activity (HeLa [25]): 0%
- Activity (HeLa [26]): 5.8%

- IC50 (A549 [1]): 895 nM
SMILES: COc1ccc(C(C)(O)c2nc(-c3ccc(Cl)s3)nc3ccccc23)cc1 (centres undefined)

- IC50 (A549 [1]): 580 nM
SMILES: COc1ccc(C(C)(O)c2nc(N3CCSC3)nc3ccccc23)cc1 (centres undefined)

- IC50 (A549 [1]): 1010 nM
SMILES: COc1ccc(C(C)(O)c2nc(-c3coc(C=O)c3)nc3ccccc23)cc1 (centres undefined)

- IC50 (A549 [1]): 1410 nM
SMILES: COc1ccc(C(C)(O)c2nc(-c3ccc(O)cc3)nc3ccccc23)cc1 (centres undefined)

- IC50 (A549 [1]): 60 nM
SMILES: COc1ccc(C(C)(O)c2nc(-c3cccnc3)nc3ccccc23)cc1 (centres undefined)

- IC50 (A549 [1]): 13 nM
SMILES: COc1ccc(C(C)(O)c2nc(-c3ccc(C#N)s3)nc3ccccc23)cc1 (centres undefined)

- IC50 (A549 [1]): 220 nM
SMILES: COc1ccc(C(C)(O)c2nc(N3CC=CC3)nc3ccccc23)cc1 (centres undefined)

- IC50 (A549 [1]): 1220 nM
SMILES: COc1ccc(C(C)(O)c2nc(N3CCC(OC)CC3)nc3ccccc23)cc1 (centres undefined)
